Measured values published in patent US6800772B2, “Carboxylic acids and derivatives thereof and pharmaceutical compositions containing them” (Yissum Research Development Company of the Hebrew …, priority 1997, dated 2004).

Columns and labels:
[1] = tested on: Rats; assay: Experiment I: rats fed chow supplemented with compound for 6 days; plasma lipids, glucose, food intake; format: in vivo; details: 0.1% (w/w) in diet
Procedure: Rats (n=5 for each treatment group) were fed ad libitum on Purina chow for 6 days, the diet being supplemented with 0.1% (w/w) γ,γ′-methyl substituted α,ω-dioic acids of formula (II) (Ex. 1, Ex. 3, Ex. 4) in the diet. The biological effect in vivo was evaluated by following food intake, plasma triglycerides, plasma cholesterol and plasma glucose.

[2] = tested on: Rats; assay: Experiment III: conditions as in Experiment II; plasma lipids, apo C-III, glucose, insulin; format: in vivo
Procedure: (§1) Rats (n=5 for each treatment group) were fed ad libitum on purina chow for 5 days, the diet being supplemented with either γ,γ′-methyl substituted α,ω hexadecanedioic acid (formula (II). Ex. 3) or β,β′-methyl substituted α,ω-hexadecanedioic acid (U.S. Pat. No. 4,634,795) at a dosage of 0.09% (w/w) in the diet. The biological effect in vivo was evaluated by following plasma triglycerides, plasma apolipoprotein(apo)C-III, plasma insulin and the steady state concentrations (Css) of the respective drugs in plasma. Fold efficacy of the γ,γ′-substituted compound (Ex. 3) relative to the β,β′-substituted compound was calculated by normalizing the observed effect by the respective Css attained.
Conditions as in Experiment II using α,α′-methyl-substituted α,ω-tetradecanedioic acid.
Fold efficacy represents the respective effect induced by the α,α′-substituted compound (Ex. 5) relative to that of the β,β′-substituted compound.

[3] = tested on: Rats; assay: Experiment II: rats fed chow supplemented with compound for 5 days; plasma triglycerides, apo C-III, insulin; format: in vivo
Procedure: as §1

[4] = effect of α,α′-substituted compound relative to β,β′-substituted compound
[5] = rats, conditions as in Experiment II
[6] = observed effect normalized by respective Css, relative to β,β′-substituted compound
[7] = rats, 0.09% (w/w) in diet, 5 days

CC(C)(CCCCCCCCCCC(C)(C)CCC(=O)O)CCC(=O)O [Ex. 4, 4,4,15,15-Tetramethyloctadecanedioic acid]
Food intake [1]: 19.1 ± 1.2 g/day | Plasma cholesterol [1]: 56.8 ± 10.8 mg % | Plasma glucose [1]: 139.0 ± 9.0 mg % | Plasma triglycerides [1]: 29.3 ± 10.4 mg % | melting point: 71 to 72 °C

CC(C)(CCCCCCC(C)(C)CCC(=O)O)CCC(=O)O [Ex. 1, 4,4,11,11-Tetramethyltetradecanedioic Acid]
Food intake [1]: 18.6 ± 2.1 g/day | Plasma cholesterol [1]: 64.1 ± 12.0 mg % | Plasma glucose [1]: 127.8 ± 6.6 mg % | Plasma triglycerides [1]: 24.8 ± 3.9 mg % | melting point: 88 to 89 °C

CC(C)(CCCCCCCCCCCCC(C)(C)C(=O)O)C(=O)O [Ex. 6, 2,2,15,15-Tetramethylhexadecanedioic Acid]
Fold efficacy (α,α/β,β), plasma apo C-III [2, 4]: 3.7 | Fold efficacy (α,α/β,β), plasma cholesterol [2, 4]: 1.2 | Fold efficacy (α,α/β,β), plasma glucose [2, 4]: 1.1 | Fold efficacy (α,α/β,β), plasma insulin [2, 4]: 1.0 | Fold efficacy (α,α/β,β), plasma triglycerides [2, 4]: 1.78 | Plasma apo C-III [2, 5]: 17 ± 14 mg % | Plasma cholesterol [2, 5]: 69.5 ± 9.7 mg % | Plasma glucose [2, 5]: 104 ± 4 mg % | Plasma insulin [2, 5]: 24.2 ± 7.3 µU/mL | Plasma triglycerides ([2]; rats, conditions as in Experiment II (0.09% w/w in diet, 5 days)): 44.5 ± 14.0 mg %

CC(C)(CCCCCCCCC(C)(C)CCC(=O)O)CCC(=O)O [Ex. 3, 4,4,13,13-Tetramethylhexadecanedioic Acid]
Food intake [1]: 19.3 ± 1.1 g/day | Plasma cholesterol [1]: 62.4 ± 13.3 mg % | Plasma glucose [1]: 138.8 ± 2.7 mg % | Plasma triglycerides [1]: 28.8 ± 7.4 mg % | Fold efficacy (γ,γ/β,β), plasma apo C-III [3, 6]: 7.7 | Fold efficacy (γ,γ/β,β), plasma insulin [3, 6]: 15.2 | Fold efficacy (γ,γ/β,β), plasma triglycerides [3, 6]: 8.2 | Plasma apo C-III [3, 7]: 12.0 ± 4.6 mg % | Plasma insulin [3, 7]: 16 ± 6.1 µU/mL | Plasma triglycerides [3, 7]: 19.9 ± 7.4 mg %
